Tests used:
Experiment in all cases: combination Emax (second highest fraction inhibited in the dose matrix, 72 h); higher = more inhibition; extreme values may be limits of the assay
[1] = tested on: NCI-H2795 (Mesothelioma)
How it was run: (§1)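 Cell lines in DMEM/F12 or RPMI with 10% FBS were plated in 1536-well plates, held 24 hours at 37°C, 5% CO2, then given two-drug dose matrices for 72 hours (DMSO typically 0.2%). Viability was read by CellTiter-Glo 2.0 luminescence and scaled as inhibition from 0 (vehicle wells) to 1 (blank wells). Combination Emax is the second-highest inhibition in the matrix; Bliss excess is observed combination effect minus expected EA + EB − EA·EB, EA and EB being single-agent effects.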

[2] = tested on: NB14 (Neuroblastoma)
How it was run: as §1

[3] = tested on: OVCAR-8 (Ovarian Carcinoma)
How it was run: as §1

[4] = tested on: CAPAN-1 (Pancreatic Carcinoma)
How it was run: as §1

[5] = tested on: EN (Endometrial Carcinoma)
How it was run: as §1

[6] = tested on: KYSE-410 (Esophageal Squamous Cell Carcinoma)
How it was run: as §1

[7] = tested on: HCC-15 (Squamous Cell Lung Carcinoma)
How it was run: as §1

[8] = tested on: SW1271 (Small Cell Lung Carcinoma)
How it was run: as §1

[9] = tested on: MDA-MB-468 (Breast Carcinoma)
How it was run: as §1

[10] = tested on: SUP-T1 (T-Lymphoblastic Leukemia)
How it was run: as §1

[11] = tested on: LB771-HNC (Head and Neck Carcinoma)
How it was run: as §1

[12] = tested on: K5 (Thyroid Gland Carcinoma)
How it was run: as §1

[13] = tested on: HO-1-u-1 (Oral Cavity Carcinoma)
How it was run: as §1

[14] = tested on: SK-OV-3 (Ovarian Carcinoma)
How it was run: as §1

[15] = tested on: SH-4 (Melanoma)
How it was run: as §1

[16] = tested on: SW626 (Colorectal Carcinoma)
How it was run: as §1

[17] = tested on: HDLM-2 (Hodgkin's Lymphoma)
How it was run: as §1

[18] = tested on: NCI-H69 (Small Cell Lung Carcinoma)
How it was run: as §1

[19] = tested on: MHH-PREB-1 (B-Cell Non-Hodgkin's Lymphoma)
How it was run: as §1

[20] = tested on: RKO (Colorectal Carcinoma)
How it was run: as §1

| Compound | combination Emax [1] | combination Emax [2] | combination Emax [3] | combination Emax [4] | combination Emax [5] | combination Emax [6] | combination Emax [7] | combination Emax [8] | combination Emax [9] | combination Emax [10] | combination Emax [11] | combination Emax [12] | combination Emax [13] | combination Emax [14] | combination Emax [15] | combination Emax [16] | combination Emax [17] | combination Emax [18] | combination Emax [19] | combination Emax [20] |
| --- | --- | --- | --- | --- | --- | --- | --- | --- | --- | --- | --- | --- | --- | --- | --- | --- | --- | --- | --- | --- |
| CN(C)CCCOc1ccc(-c2ccc3ncc4c(c3c2)n(C2CCOCC2)c(=O)n4C)cn1 [AZD0156] + C=CCn1c(=O)c2cnc(Nc3ccc(N4CCN(C)CC4)cc3)nc2n1-c1cccc(C(C)(C)O)n1 [AZD1775] (first compound max 1 µM, partner max 1 µM) | 0.512 | 1 | 0.8 | 0.394 | 0.512 | 0.32 | 0.299 | 0.476 | 0.42 | 0.872 | 0.557 | 0.424 | 0.77 | 0.54 | 0.564 | 0.508 | 0.721 | 0.312 | 0.844 | 0.719 |
| Cc1c2c(nn1C)CSCc1cc(n(C)n1)CSc1cc(c3ccccc3c1)OCCCc1c(C(=O)O)n(C)c3c-2c(Cl)ccc13 [AZD5991] + C=CCn1c(=O)c2cnc(Nc3ccc(N4CCN(C)CC4)cc3)nc2n1-c1cccc(C(C)(C)O)n1 [AZD1775] (first compound max 1 µM, partner max 1 µM) | 0.881 | 1 | 0.865 | 0.465 | 0.812 | 0.625 | 0.55 | 0.582 | 0.615 | 0.847 | 0.745 | 0.482 | 0.677 | 0.597 | 0.616 | 0.559 | 1 | 0.266 | 0.853 | 0.69 |
| Cc1c2c(nn1C)CSCc1cc(n(C)n1)CSc1cc(c3ccccc3c1)OCCCc1c(C(=O)O)n(C)c3c-2c(Cl)ccc13 [AZD5991] + C1CN(CCC1(C(=O)N[C@@H](CCO)C2=CC=C(C=C2)Cl)N)C3=NC=NC4=C3C=CN4 [Capivasertib] (first compound max 1 µM, 7x7, partner max 3 µM) | 0.85 | 0.89 | 0.169 | 0.203 | 0.848 | 0.174 | 0.227 | 0.216 | 0.585 | 0.503 | 0.587 | 0.478 | 0.837 | 0.36 | 0.332 | 0.25 | 1 | 0.405 | 0.101 | 0.292 |
| CN(C)CCCOc1ccc(-c2ccc3ncc4c(c3c2)n(C2CCOCC2)c(=O)n4C)cn1 [AZD0156] + CCN(CCO)CCCOc1ccc2c(Nc3cc(CC(=O)Nc4cccc(F)c4)[nH]n3)ncnc2c1 [AZD2811] (first compound max 1 µM, 7x7, partner max 1 µM) | 0.291 | 0.857 | 0.26 | 0.137 | 0.494 | 0.0555 | 0.665 | 0.201 | 0.363 | 0.366 | 0.142 | 0.244 | 0.209 | 0.138 | 0.247 | 0.0884 | 0.178 | 0.673 | 0.154 | 0.213 |
| CC1(C)CCC(CN2CCN(c3ccc(C(=O)NS(=O)(=O)c4ccc(NCC5CCOCC5)c([N+](=O)[O-])c4)c(Oc4cnc5[nH]ccc5c4)c3)CC2)=C(c2ccc(Cl)cc2)C1 [Venetoclax] + Cc1cc2ncnn2cc1Nc1ncc2c(n1)n(C1CCOCC1)c(=O)n2C [AZD7648] (first compound max 1 µM, 7x7, partner max 10 µM) | 0.471 | 0.974 | 0.229 | 0.195 | 0.49 | 0.23 | 0.253 | 0.202 | 0.397 | 0.602 | 0.271 | 0.394 | 0.305 | 0.353 | 0.279 | 0.136 | 0.431 | 0.657 | 0.178 | 0.275 |
| Cc1cc2ncnn2cc1Nc1ncc2c(n1)n(C1CCOCC1)c(=O)n2C [AZD7648] + C[C@@H]1COCCN1C2=NC(=NC(=C2)C3(CC3)[S@](=N)(=O)C)C4=C5C=CNC5=NC=C4 [AZD6738] (first compound max 10 µM, 7x7, partner max 10 µM) | 0.609 | 0.99 | 0.71 | 0.495 | 0.62 | 0.363 | 0.181 | 0.674 | 0.513 | 0.744 | 0.464 | 0.665 | 0.845 | 0.638 | 0.335 | 0.619 | 0.373 | 0.469 | 0.863 | 0.865 |
| CN(CCO)CC[C@H](CSc1ccccc1)Nc1ccc(S(=O)(=O)NC(=O)c2ccc(N3CCC([C@@H](O)c4ccccc4-c4ccc(Cl)cc4)CC3)cc2)cc1S(=O)(=O)C(F)(F)F [AZD4320] + C1CN(CCC1(C(=O)N[C@@H](CCO)C2=CC=C(C=C2)Cl)N)C3=NC=NC4=C3C=CN4 [Capivasertib] (first compound max 1 µM, 7x7, partner max 3 µM) | 0.271 | 0.947 | 0.146 | 0.161 | 0.576 | 0.0467 | 0.923 | 0.158 | 0.821 | 0.505 | 0.259 | 0.499 | 0.744 | 0.369 | 0.129 | 0.643 | 0.841 | 0.892 | 0.173 | 0.272 |
| Cc1c2c(nn1C)CSCc1cc(n(C)n1)CSc1cc(c3ccccc3c1)OCCCc1c(C(=O)O)n(C)c3c-2c(Cl)ccc13 [AZD5991] + Cc1cc2ncnn2cc1Nc1ncc2c(n1)n(C1CCOCC1)c(=O)n2C [AZD7648] (first compound max 1 µM, 7x7, partner max 10 µM) | 0.941 | 0.72 | 0.225 | 0.267 | 0.563 | 0.229 | 0.207 | 0.305 | 0.462 | 0.466 | 0.571 | 0.351 | 0.418 | 0.483 | 0.284 | 0.224 | 0.996 | 0.283 | 0.175 | 0.364 |
| CCN(CCO)CCCOc1ccc2c(Nc3cc(CC(=O)Nc4cccc(F)c4)[nH]n3)ncnc2c1 [AZD2811] + C=CCn1c(=O)c2cnc(Nc3ccc(N4CCN(C)CC4)cc3)nc2n1-c1cccc(C(C)(C)O)n1 [AZD1775] (first compound max 1 µM, partner max 1 µM) | 0.441 | 1 | 0.791 | 0.416 | 0.558 | 0.267 | 0.723 | 0.586 | 0.434 | 0.839 | 0.359 | 0.507 | 0.54 | 0.434 | 0.456 | 0.427 | 0.746 | 0.602 | 0.718 | 0.655 |
| CC1(C)CCC(CN2CCN(c3ccc(C(=O)NS(=O)(=O)c4ccc(NCC5CCOCC5)c([N+](=O)[O-])c4)c(Oc4cnc5[nH]ccc5c4)c3)CC2)=C(c2ccc(Cl)cc2)C1 [Venetoclax] + C=CCn1c(=O)c2cnc(Nc3ccc(N4CCN(C)CC4)cc3)nc2n1-c1cccc(C(C)(C)O)n1 [AZD1775] (first compound max 1 µM, partner max 1 µM) | 0.658 | 1 | 0.798 | 0.45 | 0.653 | 0.422 | 0.469 | 0.552 | 0.521 | 0.812 | 0.518 | 0.523 | 0.949 | 0.74 | 0.573 | 0.647 | 0.88 | 0.425 | 0.846 | 0.88 |
| Cc1cc2ncnn2cc1Nc1ncc2c(n1)n(C1CCOCC1)c(=O)n2C [AZD7648] + O=C(c1cc(Cc2n[nH]c(=O)c3ccccc23)ccc1F)N1CCN(C(=O)C2CC2)CC1 [Olaparib] (first compound max 10 µM, 7x7, partner max 10 µM) | 0.421 | 0.508 | 0.344 | 0.237 | 0.301 | 0.141 | 0.129 | 0.24 | 0.242 | 0.465 | 0.148 | 0.421 | 0.261 | 0.173 | 0.179 | 0.13 | 0.155 | 0.337 | 0.232 | 0.242 |
| NC1(C(=O)N[C@@H](CCO)c2ccc(Cl)cc2)CCN(c2ncnc3[nH]ccc23)CC1 [Capivasertib] + C[C@@H]1COCCN1C2=NC(=NC(=C2)C3(CC3)[S@](=N)(=O)C)C4=C5C=CNC5=NC=C4 [AZD6738] (first compound max 10 µM, 7x7, partner max 10 µM) | 0.737 | 0.964 | 0.776 | 0.364 | 0.71 | 0.397 | 0.367 | 0.512 | 0.726 | 0.866 | 0.674 | 0.687 | 0.887 | 0.493 | 0.492 | 0.68 | 0.518 | 0.671 | 0.749 | 0.938 |

Reference: the supplement of paper PMC11061612
